Results as given in ChEMBL document CHEMBL1136726, “Synthesis and characterization of iodine-123 labeled 2beta-carbomethoxy-3beta-(4'-((Z)-2-iodoethenyl)phenyl)nortropane. A ligand for in vivo imaging of serotonin transporters by single-photon-emission tomography” (J Med Chem, 2003).

Assays:
[1] = target: T1, Sodium-dependent serotonin transporter (Homo sapiens, UniProt P31645); assay: Binding affinity towards serotonin transporter (SERT) by using [3H]paroxetine as radioligand
[2] = target: T2, Sodium-dependent dopamine transporter (Homo sapiens, UniProt Q01959); assay: In vitro competitive binding versus [N-methyl-3H]WIN-35428 in murine kidney cells transfected with cDNA for human dopamine transporter (DAT); type: cell-based
[3] = target: T1, Sodium-dependent serotonin transporter; assay: In vitro competitive binding versus [3H]-citalopram in murine kidney cells transfected with cDNA for human serotonin transporter (SERT); type: cell-based
[4] = target: Sodium-dependent noradrenaline transporter (Homo sapiens, UniProt P23975); assay: In vitro competitive binding versus [3H]- […] in murine kidney cells transfected with cDNA for human norepinephrine transporter (NET); type: cell-based
[5] = target: T2, Sodium-dependent dopamine transporter; assay: Binding affinity towards dopamine transporter (DAT) by using [3H]WIN-35428 as radioligand
[6] = target: T1, Sodium-dependent serotonin transporter; assay: In vitro competitive binding versus [3H]citalopram in murine kidney cells transfected with cDNA for human serotonin transporter (SERT); type: cell-based
[7] = target: T1, Sodium-dependent serotonin transporter; assay: Binding affinity towards serotonin transporter (SERT)

T2 sequence (Q01959 whole entry): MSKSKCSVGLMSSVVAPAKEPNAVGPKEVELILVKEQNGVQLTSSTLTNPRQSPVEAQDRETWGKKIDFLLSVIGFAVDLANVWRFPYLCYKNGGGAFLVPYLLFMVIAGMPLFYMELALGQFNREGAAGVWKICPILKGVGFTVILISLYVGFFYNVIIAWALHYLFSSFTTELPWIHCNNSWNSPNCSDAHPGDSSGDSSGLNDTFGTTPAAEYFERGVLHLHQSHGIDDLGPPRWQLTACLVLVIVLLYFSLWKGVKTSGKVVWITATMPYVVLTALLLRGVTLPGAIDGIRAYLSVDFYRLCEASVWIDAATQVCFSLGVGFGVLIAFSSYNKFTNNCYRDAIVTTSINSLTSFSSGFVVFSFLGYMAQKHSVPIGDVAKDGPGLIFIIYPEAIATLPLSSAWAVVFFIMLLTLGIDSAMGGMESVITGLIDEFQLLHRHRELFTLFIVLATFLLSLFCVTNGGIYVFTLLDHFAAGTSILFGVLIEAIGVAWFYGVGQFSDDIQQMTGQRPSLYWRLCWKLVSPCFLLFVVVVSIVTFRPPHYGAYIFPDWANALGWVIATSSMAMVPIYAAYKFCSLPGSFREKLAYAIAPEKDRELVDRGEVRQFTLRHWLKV
T1 sequence (P31645 whole entry): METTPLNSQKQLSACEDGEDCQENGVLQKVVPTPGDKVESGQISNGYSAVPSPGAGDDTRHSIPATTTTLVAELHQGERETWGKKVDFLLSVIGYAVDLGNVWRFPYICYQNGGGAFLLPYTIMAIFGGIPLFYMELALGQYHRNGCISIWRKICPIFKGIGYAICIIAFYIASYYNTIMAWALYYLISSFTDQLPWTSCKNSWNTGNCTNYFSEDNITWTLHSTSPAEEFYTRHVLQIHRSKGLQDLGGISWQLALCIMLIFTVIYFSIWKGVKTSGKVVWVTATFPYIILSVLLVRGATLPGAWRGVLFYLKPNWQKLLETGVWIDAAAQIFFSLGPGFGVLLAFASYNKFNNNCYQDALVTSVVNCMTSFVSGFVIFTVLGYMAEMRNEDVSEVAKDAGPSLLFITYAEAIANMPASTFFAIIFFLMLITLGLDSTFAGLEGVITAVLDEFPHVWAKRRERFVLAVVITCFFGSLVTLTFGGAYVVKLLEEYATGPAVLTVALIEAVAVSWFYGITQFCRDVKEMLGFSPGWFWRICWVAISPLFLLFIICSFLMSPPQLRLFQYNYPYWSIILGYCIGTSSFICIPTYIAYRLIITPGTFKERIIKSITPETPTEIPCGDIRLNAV
Sodium-dependent noradrenaline transporter, sequence (P23975 whole entry): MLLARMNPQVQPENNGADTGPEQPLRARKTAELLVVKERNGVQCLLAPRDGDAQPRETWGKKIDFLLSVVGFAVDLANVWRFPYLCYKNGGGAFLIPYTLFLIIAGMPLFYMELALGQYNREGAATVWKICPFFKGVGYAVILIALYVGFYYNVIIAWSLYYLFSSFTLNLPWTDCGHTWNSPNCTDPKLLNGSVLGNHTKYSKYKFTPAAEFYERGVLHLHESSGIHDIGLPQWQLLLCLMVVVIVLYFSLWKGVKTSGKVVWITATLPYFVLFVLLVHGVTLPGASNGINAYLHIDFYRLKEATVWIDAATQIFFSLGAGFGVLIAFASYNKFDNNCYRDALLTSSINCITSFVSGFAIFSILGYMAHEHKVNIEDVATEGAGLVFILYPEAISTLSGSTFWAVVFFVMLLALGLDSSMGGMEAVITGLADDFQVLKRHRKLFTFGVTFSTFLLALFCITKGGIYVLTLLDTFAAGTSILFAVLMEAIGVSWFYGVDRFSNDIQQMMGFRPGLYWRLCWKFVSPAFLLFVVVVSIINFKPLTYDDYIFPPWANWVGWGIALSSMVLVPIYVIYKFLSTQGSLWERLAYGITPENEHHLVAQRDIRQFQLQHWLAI

C=C(C)c1ccc([C@H]2CC3CCC(N3)[C@H]2C(=O)CC)cc1 (stereo not given in full)
IC50 [1]: 0.16 nM

COC(=O)[C@@H]1C2CCC(C[C@@H]1c1ccc(/C=C/I)cc1)N2 (stereo not given in full)
Ki [2]: 1.88 nM | Ki [3]: 1.15 nM | Ki [4]: 32 nM

C/C=C/c1ccc([C@H]2CC3CCC([C@H]2C(=O)OC)N3C)cc1 (stereo not given in full)
IC50 [5]: 28 nM | IC50 [1]: 1.3 nM

COC(=O)[C@@H]1C2CC[C@H](C[C@@H]1c1ccc(I)cc1)N2C
Ki [6]: 0.67 nM | Ki [2]: 0.48 nM | IC50 [7]: 4.2 nM | Ki [4]: 1.4 nM

COC(=O)[C@@H]1C2CCC(C[C@@H]1c1ccc(I)cc1)N2 (stereo not given in full)
Ki [2]: 0.12 nM | IC50 [7]: 0.36 nM

C=Cc1ccc([C@H]2CC3CCC(N3)[C@H]2C(=O)CC)cc1 (stereo not given in full)
IC50 [1]: 0.32 nM

C/C=C\c1ccc([C@H]2CC3CCC([C@H]2C(=O)OC)N3C)cc1 (stereo not given in full)
IC50 [5]: 32 nM | IC50 [1]: 1.15 nM
